Laboratory results from patent US9695155B2, “Herbicidal substituted pyrimidinyloxy benzene compounds” (E. I. DU PONT DE NEMOURS AND COMPANY, priority 2013, dated 2017).

Key:
morningglory = assay: Test A preemergence; type: in vivo, Ipomoea spp.; conditions: Ipomoea, pre-emergence, 240 h, read-out: Morningglory plant response rating
In short: (§1)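 Greenhouse pot test, loam/sand soil. Formulation: non-phytotoxic solvent mix plus surfactant. Pre: directed spray onto soil after sowing. Post: plants at 1–2 leaf, 2–10 cm. Rated visually vs untreated controls at ~10 d, 0 (no effect) to 100 (complete control).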

corn [1] = assay: Test A preemergence; type: in vivo, Zea mays; conditions: Zea mays, pre-emergence, 240 h, read-out: Corn plant response rating
In short: as §1

barnyardgrass [2] = assay: Test A postemergence; type: in vivo, Echinochloa crus-galli; conditions: Echinochloa crus-galli, post-emergence, 240 h
In short: as §1

sedge, umbrella = assay: Test B flooded paddy test; type: in vivo, Cyperus difformis; conditions: Cyperus difformis, Flood, 250 g ai/ha; 0 to 100 scale where 0 is no effect and 100 is complete control; read-out: Plant response rating, Sedge, Umbrella
In short: (§2)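 Seedlings are raised to two leaves, flooded to a depth of 3 cm and dosed by adding the compound to the floodwater. Water level is kept constant, and plants are scored visually versus controls 13–15 days later (0 = no effect, 100 = complete control).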

barnyardgrass [3] = assay: Test B flooded paddy test; type: in vivo, Echinochloa crus-galli; conditions: Echinochloa crus-galli; Flood, 250 g ai/ha; 0 to 100 scale where 0 is no effect and 100 is complete control; read-out: Plant response rating, Barnyardgrass
In short: as §2

corn [4] = assay: Test C preemergence; type: in vivo, Zea mays; conditions: Zea mays, pre-emergence
In short: (§3)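 Seeds are planted in blended loam soil and sand and treated preemergence, while seedlings in a peat moss/vermiculite medium receive postemergence sprays at 2 to 18 cm height. All plants stay in the greenhouse for 13 to 15 days before visual comparison with controls on a 0–100 scale.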

giant foxtail = assay: Test C preemergence; type: in vivo, Setaria faberii; conditions: Setaria faberi, pre-emergence
In short: as §3

Italian ryegrass = assay: Test C postemergence; type: in vivo, Lolium multiflorum; conditions: Lolium multiflorum, post-emergence
In short: as §3

johnsongrass = assay: Test C postemergence; type: in vivo, Sorghum halepense; conditions: Sorghum halepense, post-emergence
Source text: (§4) Seeds of plant species selected from blackgrass (Alopecurus myosuroides), Italian ryegrass (Lolium multiflorum), wheat, winter (winter wheat, Triticum aestivum), galium (catchweed bedstraw, Galium aparine), corn (Zea mays), large (Lg) crabgrass (Digitaria sanguinalis), giant foxtail (Setaria faberii), johnsongrass (Sorghum halepense), lambsquarters (Chenopodium album), morningglory (Ipomoea coccinea), yellow nutsedge (Cyperus esculentus), pigweed (Amaranthus retroflexus), ragweed (common ragweed, Ambrosia elatior), soybean (Glycine max), barnyardgrass (Echinochloa crus-galli), oilseed rape (Brassica napus), waterhemp (common waterhemp, Amaranthus rudis), kochia (Kochia scoparia), wild oat (Avena fatua), surinam grass (Brachiaria decumbens), foxtail, green (green foxtail, Setaria viridis), goosegrass (Eleusine indica), bromegrass, downy (downy bromegrass, Bromus tectorum), nightshade (eastern black nightshade, Solanum ptycanthum), cocklebur (common cocklebur, Xanthium strumarium), cupgrass, woolly (woolly cupgrass, Eriochloa villosa), bermudagrass (Cynodon dactylon), sunflower, (common oilseed sunflower, Helianthus annuus), Russian thistle (Salsola kali), and velvetleaf (Abutilon theophrasti) were planted into a blend of loam soil and sand and treated preemergence with test chemicals formulated in a non-phytotoxic solvent mixture which included a surfactant.
(§5) At the same time, plants selected from these crop and weed species and also barley, winter (winter barley, Hordeum vulgare), windgrass (Apera spica-venti), chickweed (common chickweed, Stellaria media), deadnettle (henbit deadnettle, Lamium amplexicaule), and canarygrass (littleseed canarygrass, Phalaris minor) were planted in pots containing Redi-Earth® planting medium (Scotts Company, 14111 Scottslawn Road, Marysville, Ohio 43041) comprising spaghnum peat moss, vermiculite, wetting agent and starter nutrients and treated with postemergence applications of test chemicals formulated in the same manner. Plants ranged in height from 2 to 18 cm (1- to 4-leaf stage) for postemergence treatments. Treated plants and controls were maintained in a greenhouse for 13 to 15 days, after which time all species were compared to controls and visually evaluated. Plant response ratings, summarized in Table C, are based on a scale of 0 to 100 where 0 is no effect and 100 is complete control. A dash (-) response means no test result.

yellow nutsedge = assay: Test C postemergence; type: in vivo, Cyperus esculentus; conditions: Cyperus, post-emergence
In short: as §3

pigweed = assay: Test C postemergence; type: in vivo, Amaranthus retroflexus; conditions: Amaranthus retroflexus, post-emergence
Source text: as §4, §5

wild oat = assay: Test C postemergence; type: in vivo, Avena fatua; conditions: Avena fatua, post-emergence
Source text: as §4, §5

velvetleaf = assay: Test C postemergence; type: in vivo, Abutilon theophrasti; conditions: Abutilon theophrasti, post-emergence
In short: as §3

[5] = 125 g ai/ha, 0 to 100 scale where 0 is no effect and 100 is complete control
[6] = 500 g ai/ha, 0 to 100 scale, 0 no effect, 100 complete control, approx. 10 days

Work on Clc1cnc(Oc2ccccc2-n2cc(Br)cn2)nc1 [Compound 7, 2-[2-(4-bromo-1H-pyrazol-1-yl)phenoxy]-5-chloropyrimidine] yielded a pest or weed control at 125 g/ha (morningglory; [5]) of 20%, a pest or weed control at 500 g/ha (morningglory; [6]) of 70% and a plant injury at 125 g/ha (corn [1]; [5]) of 0%. It also gave a plant injury at 500 g/ha (corn [1]; [6]) of 30%, a pest or weed control at 125 g/ha (barnyardgrass [2]; 125 g ai/ha, 0 to 100 scale where 0 is no effect and 100 is complete control, read-out: Plant response rating, Barnyardgrass) of 90% and a pest or weed control at 500 g/ha (barnyardgrass [2]; 500 g ai/ha, 0 to 100 scale, 0 no effect, 100 complete control, read-out: Plant response rating Barnyardgrass) of 100%. For the same compound, the pest or weed control at 250 g/ha (sedge, umbrella) was 75%, the pest or weed control at 250 g/ha (barnyardgrass [3]) was 30% and the plant injury at 62 g/ha (corn [4]; 62 g ai/ha, preemergence, scale 0 (no effect) to 100 (complete control), read-out: Corn plant response rating) was 5%. The plant injury at 125 g/ha (corn [4]; 125 g ai/ha, preemergence, scale 0 (no effect) to 100 (complete control), read-out: Corn plant response rating) was 5%, the plant injury at 250 g/ha (corn [4]; 250 g ai/ha, preemergence, scale 0 (no effect) to 100 (complete control), read-out: Corn plant response rating) was 5% and the Corn plant response rating (crop injury, 0 = no effect, 100 = complete kill) at 31 g/ha (corn [4]; Preemergence, 31 g ai/ha, scale 0 to 100, 0 no effect, 100 complete control) was 0%. For the same compound, the pest or weed control at 62 g/ha (giant foxtail; 62 g ai/ha, preemergence, scale 0 (no effect) to 100 (complete control), read-out: Foxtail, Giant plant response rating) was 80%, the pest or weed control at 125 g/ha (giant foxtail; 125 g ai/ha, preemergence, scale 0 (no effect) to 100 (complete control), read-out: Foxtail, Giant plant response rating) was 98% and the pest or weed control at 250 g/ha (giant foxtail; 250 g ai/ha, preemergence, scale 0 (no effect) to 100 (complete control), read-out: Foxtail, Giant plant response rating) was 100%. For the same compound, the pest or weed control at 31 g/ha (giant foxtail; Preemergence, 31 g ai/ha, scale 0 to 100, 0 no effect, 100 complete control, read-out: Plant response rating, Foxtail, Giant) was 40%, the pest or weed control at 125 g/ha (Italian ryegrass; 125 g ai/ha, postemergence, read-out: Plant response rating (0 to 100), Ryegrass, Italian) was 10% and the pest or weed control at 250 g/ha (Italian ryegrass; 250 g ai/ha, postemergence, read-out: Plant response rating (0 to 100), Ryegrass, Italian) was 40%. It also gave a pest or weed control at 31 g/ha (Italian ryegrass; Postemergence, 31 g ai/ha, scale 0 to 100 (0 no effect, 100 complete control), 13 to 15 days, read-out: Plant response rating, Ryegrass, Italian) of 5%, a pest or weed control at 62 g/ha (Italian ryegrass; Postemergence, 62 g ai/ha, scale 0 to 100 (0 no effect, 100 complete control), read-out: Plant response rating, Ryegrass, Italian) of 10% and a pest or weed control at 125 g/ha (johnsongrass; 125 g ai/ha, postemergence, read-out: Plant response rating (0 to 100), Johnsongrass) of 5%. For the same compound, the pest or weed control at 250 g/ha (johnsongrass; 250 g ai/ha, postemergence, read-out: Plant response rating (0 to 100), Johnsongrass) was 10%, the pest or weed control at 31 g/ha (johnsongrass; Postemergence, 31 g ai/ha, scale 0 to 100 (0 no effect, 100 complete control), 13 to 15 days, read-out: Plant response rating, Johnsongrass) was 0% and the pest or weed control at 62 g/ha (johnsongrass; Postemergence, 62 g ai/ha, scale 0 to 100 (0 no effect, 100 complete control), read-out: Plant response rating, Johnsongrass) was 0%. The pest or weed control at 125 g/ha (yellow nutsedge; 125 g ai/ha, postemergence, read-out: Plant response rating (0 to 100), Nutsedge, Yellow) was 15%, the pest or weed control at 250 g/ha (yellow nutsedge; 250 g ai/ha, postemergence, read-out: Plant response rating (0 to 100), Nutsedge, Yellow) was 20% and the pest or weed control at 31 g/ha (yellow nutsedge; Postemergence, 31 g ai/ha, scale 0 to 100 (0 no effect, 100 complete control), 13 to 15 days, read-out: Plant response rating, Nutsedge, Yellow) was 10%. It also gave a pest or weed control at 62 g/ha (yellow nutsedge; Postemergence, 62 g ai/ha, scale 0 to 100 (0 no effect, 100 complete control), read-out: Plant response rating, Nutsedge, Yellow) of 15%, a pest or weed control at 125 g/ha (pigweed; 125 g ai/ha, postemergence, read-out: Plant response rating (0 to 100), Pigweed) of 100% and a pest or weed control at 250 g/ha (pigweed; 250 g ai/ha, postemergence, read-out: Plant response rating (0 to 100), Pigweed) of 100%. The pest or weed control at 31 g/ha (pigweed; Postemergence, 31 g ai/ha, scale 0 to 100 (0 no effect, 100 complete control), 13 to 15 days, read-out: Plant response rating, Pigweed) was 100%, the pest or weed control at 62 g/ha (pigweed; Postemergence, 62 g ai/ha, scale 0 to 100 (0 no effect, 100 complete control), read-out: Plant response rating, Pigweed) was 100% and the pest or weed control at 125 g/ha (wild oat; 125 g ai/ha, postemergence, read-out: Plant response rating (0 to 100), Oat, Wild) was 35%. For the same compound, the pest or weed control at 250 g/ha (wild oat; 250 g ai/ha, postemergence, read-out: Plant response rating (0 to 100), Oat, Wild) was 55%, the pest or weed control at 31 g/ha (wild oat; Postemergence, 31 g ai/ha, scale 0 to 100 (0 no effect, 100 complete control), 13 to 15 days, read-out: Plant response rating, Oat, Wild) was 5% and the pest or weed control at 62 g/ha (wild oat; Postemergence, 62 g ai/ha, scale 0 to 100 (0 no effect, 100 complete control), read-out: Plant response rating, Oat, Wild) was 35%. It also gave a pest or weed control at 125 g/ha (velvetleaf; 125 g ai/ha, postemergence, read-out: Plant response rating (0 to 100), Velvetleaf) of 85%, a pest or weed control at 250 g/ha (velvetleaf; 250 g ai/ha, postemergence, read-out: Plant response rating (0 to 100), Velvetleaf) of 85% and a pest or weed control at 31 g/ha (velvetleaf; Postemergence, 31 g ai/ha, scale 0 to 100 (0 no effect, 100 complete control), 13 to 15 days, read-out: Plant response rating, Velvetleaf) of 40%. It also gave a pest or weed control at 62 g/ha (velvetleaf; Postemergence, 62 g ai/ha, scale 0 to 100 (0 no effect, 100 complete control), read-out: Plant response rating, Velvetleaf) of 50%.
